Experimental findings from article doi:10.1101/525329v1, “The large loop-8 insert in Saccharomyces cerevisiae kinesin-5 Cin8 is necessary and sufficient to promote noncanonical microtubule interactions” (biorxiv, 2019) are described below.

What all share (assay): NADH-coupled steady-state ATPase assay
Test [1] deals with T1, Eg5-KL8.
T1 construct: gene KIF11; monomeric Eg5 motor domain with Kip1 loop-8 insert; bacterial expression, pET16b
It counts as biochemical, Homo sapiens. The following applies: high ionic strength (75 mM KCl, 88 mM IS), 10 μM paclitaxel-stabilized bovine microtubules, 2 mM MgCl2, pH 7.2, 298 K; kcat from microtubule-dependent fit; read-out: Km,ATP.

The subject of test [2] is T2, Cin8-EL8.
T2 construct: monomeric Cin8 motor domain with Eg5 loop-8 insert; bacterial expression, pET32b
It counts as biochemical, Saccharomyces cerevisiae. The conditions noted are these: low ionic strength (7.5 mM KCl, 21 mM IS), 5 μM paclitaxel-stabilized bovine microtubules, 2 mM MgCl2, pH 7.2, 298 K; kcat from microtubule-dependent fit; read-out: Km,ATP.

For test [3], the system named is T3, Eg5-CL8.
T3 construct: gene KIF11; monomeric Eg5 motor domain with 99-residue Cin8 loop-8 insert; bacterial expression, pET16b
It counts as biochemical, Homo sapiens. The following applies: low ionic strength (7.5 mM KCl, 21 mM IS), 2 μM paclitaxel-stabilized bovine microtubules, 2 mM MgCl2, pH 7.2, 298 K; kcat from microtubule-dependent fit at 1 mM ATP.

Broadly, the Km is the substrate concentration at which the rate is half of its maximum. In the case of `Nc1ncnc2c1ncn2[C@@H]1O[C@H](COP(=O)(O)OP(=O)(O)OP(=O)(O)O)[C@@H](O)[C@H]1O` [ATP], the Km is 16 ± 4 µM in test [1], 39 ± 7 µM in test [2] and 40 ± 11 µM in test [3].
